Measurements published in patent publication US5281264A, “Salt-forming type dye and ink composition” (Orient Chemical Industries, Ltd., priority 1992, dated 1994).
One block for each compound: values may come before it.

Experiment: Visible absorption of salt-forming type dyes (λmax)
Format: physicochemical
Settings: spectra of dyes 1 and 4 in methanol solvent
Experimental: A structure of the dye is shown in the following formula, and hue and maximum absorption wavelength (λmax) are shown in Table. 1.
A structure of each salt-forming type dye is shown in the following formula, respectively. 1. [drawing 5]
Rhodamine 6 GCP (C.I. Basic Red) (140 parts, 0.3 mols) as a cation component was dissolved in water with stirring to prepare a 3% aqueous solution, which was then filtered. Thereafter, this solution (pH 2 to 4) was added dropwise to the dyestuff solution over 50 minutes, followed by stirring at 40° to 50° C. for 3 hours. The solution was heated to 65° C. to form a grit, followed by filtration, rinsing and further drying to obtain 200 parts of a powdered red salt-forming type dye (dye 4) having a structure of the following formula. It was confirmed that the resulting dye is a salt-forming type dye having n (2<n<3). 1. [drawing 6]
It was confirmed that the resulting dye has a structure of the following formula. 1. [drawing 7]
It was confirmed that the resulting dye has a structure of the following formula. 1. [drawing 8]

Salt-forming type dye λmax (maximum absorption wavelength) (listed as Comp. Ex. 2): 422 nm
Structure (SMILES): Cc1nn(-c2ccccc2)c(O)c1N=Nc1ccc(-c2ccc(N=Nc3c(C)nn(-c4ccccc4)c3O)cc2S(=O)(=O)O)c(S(=O)(=O)O)c1 [dye 8]

Salt-forming type dye λmax (maximum absorption wavelength) (listed as Comp. Ex. 3): 525 nm
Structure (SMILES): Cc1nn(-c2ccccc2)c(O)c1N=Nc1ccc(-c2ccc(N=Nc3c(C)nn(-c4ccccc4)c3O)cc2S(=O)(=O)O)c(S(=O)(=O)O)c1 [dye 9]

Salt-forming type dye λmax (maximum absorption wavelength) (listed as Comp. Ex. 1): 422 nm
Structure (SMILES): Cc1nn(-c2ccccc2)c(O)c1N=Nc1ccc(-c2ccc(N=Nc3c(C)nn(-c4ccccc4)c3O)cc2S(=O)(=O)O)c(S(=O)(=O)O)c1 [dye 7]

Salt-forming type dye λmax (maximum absorption wavelength) (listed as Comp. Ex. 4): 578 nm
Structure (SMILES): Cc1nn(-c2ccccc2)c(O)c1N=Nc1ccc(-c2ccc(N=Nc3c(C)nn(-c4ccccc4)c3O)cc2S(=O)(=O)O)c(S(=O)(=O)O)c1 [dye 10]
